Entries after “also recorded” stand apart in the source; their conditions may differ. Each block holds one compound with its values, some of them ahead of it.
Key:
Type in all cases: physicochemical
[1] = Measurement of bulk density (graduated cylinder, before and after tight packing); details: 40 g in graduated cylinder; for Bulk Density After Tight Packing: after patting until volume unchanged
Protocol: Each 40 g of the I-form crystals produced in Reference Example 1 and the II-form crystals produced in Example 2 were placed in a graduated cylinder to measure the volume whereby bulk density was calculated. After that, each graduated cylinder was lightly patted by hand under the same condition until the volume of the dry powder became unchanged so that the crystals were tightly packed. The volume after the tight packing was measured and bulk density was calculated.

[2] = Stability of the crystal form
[3] = Adhesion onto solid surface during handling; details: II-form compared with I-form crystals, after various handlings
Protocol: In addition, in the II-form crystals of the present invention, the bulk density is higher than in the I-form crystals and the volume for the same weight is small whereby it is now possible to manufacture small tablets and so to provide the tablets which are easily administered to patients. The advantage of high bulk density is also advantageous in terms of storage and handling when production is conducted in an industrial scale. Further, it has been found after various handlings of both II-form crystals and I-form crystals that adhesion onto the solid surface such as glass wall is lower in the II-form crystals than in the I-form crystals. Accordingly, in the case of the II-form crystals, loss during the manufacture can be reduced and labor such as cleaning and checking for removal of adhered things to the manufacturing devices and apparatuses can be reduced as well.

Solubility in water = experiment: Solubility in water

Bulk Density After Tight Packing ([1]; listed as II-form Crystals): 0.64 g/mL
Bulk Density Before Tight Packing ([1]; listed as II-form Crystals): 0.54 g/mL
stability [2]: sufficient stability
adhesion onto the solid surface such as glass wall [3]: lower
Structure (SMILES): CN1C(=O)NC(=O)C1O (stereo not shown) [II-form crystals, 5-hydroxy-1-methylimidazolidin-2,4-dione]

Structure (SMILES): CN1C(=O)NC(=O)C1O (stereo not shown) [5-hydroxy-1-methylhydantoin, 5-hydroxy-1-methylimidazolidin-2,4-dione]
solubility in water (Solubility in water): very highly soluble in water; also recorded: very easily soluble in water

Bulk Density After Tight Packing ([1]; listed as I-form Crystals): 0.46 g/mL
Bulk Density Before Tight Packing ([1]; listed as I-form Crystals): 0.35 g/mL
Structure (SMILES): CN1C(=O)NC(=O)C1O (stereo not shown) [I-form crystals, 5-hydroxy-1-methylimidazolidin-2,4-dione, reference compound]
